“And” between values parts separate entries of the source, which are not always exact repeats. Identical values can stand only once.
Columns and labels:
[1] = Powder Stain Removal Model (PSRM)
Text: The Powder Stain Removal Model (PSRM) is a screening technique where hydroxyapatite powder (HAP) is used as a substrate for stain accumulation. The purpose of this technique is to illustrate and quantify the stain removal properties of chemical agents used in oral care. Hydroxyapatite powder provides a large surface area to which tea chromogens adsorb. […] The magnitude of stain removal can then be quantified by image analysis. A trial of this model can be completed in three days. Steps involved in PSRM are described below.
Prepare large batch of tea stain HAP by stirring 10 g of HAP powder in 200 ml of filtered tea for 5 minutes. Divide into centrifuge tubes and centrifuge at 15,000 rpm for 15 mins. Wash pellet by adding in 25 ml of water, vortexing, centrifuging at 15,000 rpm for 15 mins, and pipet out liquid. Make sure pellet breaks up during vortexing. Repeat wash.
Place centrifuge tubes in convection oven (55-65° C.) overnight to dry stained HAP. Once dried, pool stained HAP together and grind to a fine powder with pestle and mortar.
Tube is vortexed for I minute to fully suspend HAP in treatment followed by centrifugation at 15,000 rpm for 15 mins. After centrifugation, supernatant is decanted and pellet redistributed by adding 25 ml of water, vortexing, centrifuging at 15,000 rpm for 15 mins, and decanting-making sure pellet breaks up during vortexing. The wash cycle is repeated one more time.
Vortex pellet in approximately 10 ml of water until fully suspended followed by filtering under vacuum onto a Millipore filter disk (Membrane Filters 4.5 μm, 47 mm Catalog #HAWP04700, Millipore Corporation, Bedford, Mass.). Prepare a control disk using=200 mg of untreated, stained HAP. Filter disks are then dried overnight in flat position and then laminated.
Whitelight system: HAP disk (untreated HAP control and HAP treatments) is placed in a stabilized sample holder. The color is measured using a digital camera camera having a lens equipped with a polarizer filter (Camera model no. CANON EOS 70D from Canon Inc., Melville, N.Y. with NIKON 55 mm micro-NIKKOR lens with adapter). The light system is provided by Dedo lights (model number DLH2) equipped with 150 watt, 24V bulbs model number (Xenophot model number HL X64640), positioned about 30 cm apart (measured from the center of the external circular surface of one of the glass lens through which the light exits to the other) and aimed at a 45 degree angle such that the light paths meet on the HAP disk. Image analysis is performed using Whitelight with Ultragrab, Optimas and Giant Imaging software.
Usual controls for a single polymer PSRM are water as a treatment followed by exposure to tea, and water without exposure to tea. Additionally, pyrophosphate and polyphosphate are run as internal controls. […]

[2] = Powder Stain Prevention Model (PSPM)
Text: The Powder Stain Prevention Model (PSPM) is a screening technique where hydroxyapatite powder (HAP) is used as a substrate for stain accumulation. The general purpose of this technique is to illustrate and quantify the stain prevention ability or staining potential of chemical agents used in oral care. Hydroxyapatite powder provides a large surface area to which tea chromogens adsorb. Pretreatment of HAP with oral care actives, either in rinse or dentifrice form, results in different levels of stain accumulation depending upon the ability of the actives to block or enhance the binding of these chromogens onto HAP surface. The magnitude of stain can then be quantified by image analysis.
Tube is vortexed for 30 seconds to fully suspend HAP in treatment followed by centrifugation at 15,000 rpm for 15 mins. After centrifugation, supernatant is decanted and pellet redistributed by adding 25 ml of water, vortexing, centrifuging at 15,000 rpm for 15 mins, and decanting-making sure pellet breaks up during vortexing. The wash cycle is repeated two more times.
After final water wash, 20 ml of filtered tea (1 Lipton tea bag per 100 ml of hot water seeped for 5 minutes, filtered and used at 50° C.) is added to each pellet and vortexed for 30 seconds to fully suspend HAP in tea. Powder suspension is centrifuged at 15,000 rpm for 15 mins and decanted. About 25 ml of water is added to the tube, vortexed and then centrifuging at 15,000 rpm for 15 mins. The liquid is decanted and wash cycle is repeated 2 more times.
Vortex pellet in approximately 10 ml of water until fully suspended followed by filtering under vacuum onto a Millipore filter disk (Membrane Filters 4.5 μm, 47 mm Catalog #HAWP04700, Millipore Corporation, Bedford, Mass.). Prepare a control disk using. −200 mg of untreated, unstained HAP. Filter disks are then dried overnight in flat position and then laminated.
Whitelight system: HAP disk (untreated HAP control and HAP treatments) is placed in a stabilized sample holder. The color is measured using a digital camera having a lens equipped with a polarizer filter (Camera model no. CANON EOS 70D from Canon Inc., Melville, N.Y. with NIKON 55 mm micro-NIKKOR lens with adapter). The light system is provided by Dedo lights (model number DLH2) equipped with 150 watt, 24V bulbs model number (Xenophot model number HL X64640), positioned about 30 cm apart (measured from the center of the external circular surface of one of the glass lens through which the light exits to the other) and aimed at a 45 degree angle such that the light paths meet on the HAP disk. Image analysis is performed using Whitelight with Ultragrab, Optimas and Giant Imaging software.
Usual controls for a single polymer PSPM are water as a treatment followed by exposure to tea, and water without exposure to tea. […]

Question: For `O=P(O)(O)OP(=O)(O)O` [Pyrophosphate], which “Delta L” value [1] is on record?
Answer: 14.2

Question: What about the “PSRM (ΔL)” value [1] of the same molecule?
Answer: 13.0-18

Question: What about the “PSRM ΔL” value [1] of the same molecule?
Answer: 12.4 and 13.5

Question: And the “Delta L” value [2]?
Answer: 16.3

Question: What about the “PSPM (ΔL)” value [2] of the same molecule?
Answer: 12.2-16.0

Question: And the “PSPM ΔL” value [2]?
Answer: 18.0 and 14.3

— patent US11046798B2, “Phosphono-phosphate containing compounds and polymers” (The Procter & Gamble Company, priority 2017, dated 2021)
